# Measured values as given in patent US11261466B2, “Homologous recombination factors” (Sinai Health System, priority 2015, dated 2022).
# System: USP11
# Assay: USP11 immunoblotting of irradiated U2OS cells (USP11 stability after DNA damage)
# Type: cell-based
# Conditions: irradiated (20 Gy), inhibitor at 5 μM, USP11 immunoblot, FIG. 11g
# Method: FIG. 11. Characterization of USP11 protein stability a, U2OS cells synchronized in G1 or S/G2 were treated with cyclohexamide (CHX) and processed at the indicated time points to monitor USP11 stability. b, Immunoprecipitation (IP) of PALB2 from extracts prepared from 293T cells that were synchronized in G1 or S phase and treated or not with IR (20 Gy). c, U2OS cells were irradiated with a dose of 2 or 20 Gy and processed for USP11 immunoblotting at the indicated times post-IR. Actin was used as a loading control. d, U2OS cells, mock-treated or incubated with the ATM inhibitor KU55933 (ATMi), ATR inhibitor VE-821 (ATRi) or DNA-PKcs inhibitor NU7441 (DNAPKi), were irradiated (20 Gy) and processed for USP11 and actin (loading control) immunoblotting. e, Similar experiment to d except that cells were exposed to ultraviolet (UV) radiation (50 mJ/cm^−2). f, U2OS cells, mock-treated or incubated with the proteasome inhibitor MG132, were irradiated (20 Gy) and processed for USP11 and actin (loading control) immunoblotting. g, U2OS cells, mock-treated or incubated with the Cullin inhibitor MLN4924, were irradiated (20 Gy) and processed for USP11 and actin (loading control) immunoblotting. […]
structure (smiles),measurement,value
NS(=O)(=O)OC[C@@H]1C[C@@H](n2ccc3c(N[C@H]4CCc5ccccc54)ncnc32)C[C@@H]1O [MLN4924],DNA damage-induced degradation of USP11,protected USP11 from DNA damage-induced degradation
